# Experimental data from patent US9365583B2, “Substituted pyrazoles and uses thereof” (Genentech, Inc., priority 2013, dated 2016).
# Molecular target: T1, N-terminally GST-tagged DLK (catalytic domain amino acid 1-520) (Homo sapiens, UniProt Q12852)
# T1 construct: N-terminally GST-tagged DLK (catalytic domain amino acid 1-520); purchased Carna Bioscience
# T1 sequence (Q12852 1-520): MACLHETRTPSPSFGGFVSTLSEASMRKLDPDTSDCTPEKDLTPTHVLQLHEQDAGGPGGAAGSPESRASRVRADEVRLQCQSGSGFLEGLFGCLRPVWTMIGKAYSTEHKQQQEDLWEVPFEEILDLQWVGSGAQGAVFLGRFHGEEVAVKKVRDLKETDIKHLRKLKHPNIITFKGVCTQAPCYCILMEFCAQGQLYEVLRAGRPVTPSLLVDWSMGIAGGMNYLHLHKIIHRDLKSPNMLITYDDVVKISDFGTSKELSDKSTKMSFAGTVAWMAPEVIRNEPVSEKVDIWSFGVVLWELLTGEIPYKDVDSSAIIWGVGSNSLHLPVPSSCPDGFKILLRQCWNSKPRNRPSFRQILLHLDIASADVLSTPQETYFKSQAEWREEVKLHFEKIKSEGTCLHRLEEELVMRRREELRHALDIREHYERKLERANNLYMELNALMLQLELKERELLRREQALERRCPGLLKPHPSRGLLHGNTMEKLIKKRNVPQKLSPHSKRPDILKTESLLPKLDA
# Assay: DLK TR-FRET inhibition assay
# Type: biochemical
# Conditions: 5 nM GST-DLK, 40 nM HIS-MKK4 K131M substrate, 30 μM ATP, 60 minutes at ambient temperature
# Summary of the method: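 5 nM GST-DLK (aa 1-520), 40 nM HIS-MKK4 K131M and 30 μM ATP reacted 60 min at ambient temperature in HEPES pH 7.5 buffer with 10 mM MgCl2, compound 1:3 serially diluted from 20 uM. TR-FRET detection of phospho-MKK4 used Eu-cryptate anti-phospho-MKK4 plus D2 anti-HIS, read after 3 h (665/615 nm).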
row,Ki [nM],Structure (SMILES)
1,2.5,"CC(C)n1nc(-c2cnc(N)c(C(F)(F)F)c2)cc1[C@H]1[C@@H]2C[C@H](N3CCN(CC(F)F)CC3)C[C@@H]21 [compound 265, 5-(5-((1R,3r,5S,6r)-3-(4-(2,2-difluoroethyl)piperazin-1-yl)bicyclo[3.1.0]hexan-6-yl)-1-isopropyl-1H-pyrazol-3-yl)-3-(trifluoromethyl)pyridin-2-amine]"
2,1.1,CC(C)n1nc(-c2cnc(N)c(C(F)(F)F)c2)cc1[C@H]1[C@@H]2C[C@@H](N3CCN(CC(F)F)CC3)C[C@@H]21 [compound 266]
3,220,"Nc1ncc(-c2cc([C@H]3[C@@H]4C[C@H](N5CCOCC5)C[C@@H]43)nn2CC2CC2)cc1OC(F)F [compound 267, 5-(1-(cyclopropylmethyl)-3-((1R,3r,5S,6r)-3-morpholinobicyclo [3.1.0]hexan-6-yl)-1H-pyrazol-5-yl)-3-(difluoromethoxy) pyridin-2-amine]"
4,221,"Nc1ncc(-c2cc([C@H]3[C@@H]4C[C@@H](N5CCOCC5)C[C@@H]43)nn2CC2CC2)cc1OC(F)F [compound 268, 5-(1-(cyclopropylmethyl)-3-((1R,3s,5S,6r)-3-morpholinobicyclo [3.1.0]hexan-6-yl)-1H-pyrazol-5-yl)-3-(difluoromethoxy) pyridin-2-amine]"
5,4.1,"CC(C)n1nc(-c2cnc(N)c(C(F)(F)F)c2)cc1[C@H]1[C@@H]2C[C@H](N)C[C@@H]21 [compound 269, 5-(5-((1R,3r,5S,6r)-3-amino-bicyclo[3.1.0]hexan-6-yl)-1-isopropyl-1H-pyrazol-3-yl)-3-(trifluoro-methyl)pyridin-2-amine]"
6,2.6,"CC(C)n1nc(-c2cnc(N)c(OC(F)F)c2)cc1[C@H]1[C@@H]2C[C@H](N3CC4CC(C3)O4)C[C@@H]21 [compound 271, 5-(5-((1R,3r,5S,6r)-3-(6-oxa-3-azabicyclo[3.1.1]heptan-3-yl)bicyclo[3.1.0]hexan-6-yl)-1-iso-propyl-1H-pyrazol-3-yl)-3-(difluoro-methoxy)pyridin-2-amine]"
7,5.6,"COCCO[C@H]1C[C@@H]2[C@H](C1)[C@H]2c1cc(-c2cnc(N)c(C(F)(F)F)c2)nn1C(C)C [compound 272, 5-(1-isopropyl-5-((1R,3r,5S,6r)-3-(2-methoxyethoxy)bicyclo [3.1.0]hexan-6-yl)-1H-pyrazol-3-yl)-3-(trifluoromethyl)pyridin-2-amine]"
8,1.3,"Nc1ncc(-c2cc([C@H]3[C@@H]4C[C@H](N5CCOCC5)C[C@@H]43)n(CC3CC3)n2)cc1C(F)(F)F [compound 273, 5-(1-(cyclopropylmethyl)-5-((1R,3r,5S,6r)-3-morpholinobicyclo [3.1.0]hexan-6-yl)-1H-pyrazol-3-yl)-3-(trifluoromethyl)pyridin-2-amine]"
9,1.3,"Nc1ncc(-c2cc([C@H]3[C@@H]4C[C@H](N5CCOCC5)C[C@@H]43)n(CC3CC3)n2)cc1OC(F)F [compound 274, 5-(1-(cyclopropylmethyl)-5-((1R,3r,5S,6r)-3-morpholinobicyclo [3.1.0]hexan-6-yl)-1H-pyrazol-3-yl)-3-(difluoromethoxy)pyridin-2-amine]"
10,4.7,"COCCO[C@@H]1C[C@@H]2[C@H](C1)[C@H]2c1cc(-c2cnc(N)c(C(F)(F)F)c2)nn1C(C)C [compound 275, 5-(1-isopropyl-5-((1R,3s,5S,6r)-3-(2-methoxyethoxy)bicyclo [3.1.0]hexan-6-yl)-1H-pyrazol-3-yl)-3-(trifluoromethyl)pyridin-2-amine]"
11,1.8,"CC(C)n1nc(-c2cnc(N)c(C(F)(F)F)c2)cc1[C@H]1[C@@H]2C[C@@H](N)C[C@@H]21 [compound 276, 5-(5-((1R,3s,5S,6r)-3-aminobicyclo [3.1.0]hexan-6-yl)-1-isopropyl-1H-pyrazol-3-yl)-3-(trifluoro-methyl)pyridin-2-amine]"
12,1.4,"CC(C)n1nc(-c2cnc(N)c(OC(F)F)c2)cc1[C@H]1[C@@H]2C[C@@H](N3CC4CC(C3)O4)C[C@@H]21 [compound 278, 5-(5-((1R,3s,5S,6r)-3-(6-oxa-3-azabicyclo[3.1.1]heptan-3-yl)bicyclo[3.1.0]hexan-6-yl)-1-isopropyl-1H-pyrazol-3-yl)-3-(difluoromethoxy)pyridin-2-amine]"
13,1.6,"Nc1ncc(-c2cc([C@H]3[C@@H]4C[C@@H](N5CCOCC5)C[C@@H]43)n(CC3CC3)n2)cc1OC(F)F [compound 279, 5-(1-(cyclopropylmethyl)-5-((1R,3s,5S,6r)-3-morpholinobicyclo [3.1.0]hexan-6-yl)-1H-pyrazol-3-yl)-3-(difluoromethoxy)pyridin-2-amine]"
14,1.1,"Nc1ncc(-c2cc([C@H]3[C@@H]4C[C@@H](N5CCOCC5)C[C@@H]43)n(CC3CC3)n2)cc1C(F)(F)F [compound 280, 5-(1-(cyclopropylmethyl)-5-((1R,3s,5S,6r)-3-morpholinobicyclo [3.1.0]hexan-6-yl)-1H-pyrazol-3-yl)-3-(trifluoromethyl)pyridin-2-amine]"
15,18.4,"CC(C)n1nc(-c2cnc(N)c(CC(F)(F)F)c2)cc1[C@H]1[C@@H]2C[C@@H](N3CCOCC3)C[C@@H]21 [compound 281, 5-(1-isopropyl-5-((1R,3s,5S,6r)-3-morpholinobicyclo[3.1.0]hexan-6-yl)-1H-pyrazol-3-yl)-3-(2,2,2-trifluoroethyl)pyridin-2-amine]"
16,7.7,"CC(C)n1nc(-c2cnc(N)c(OC(F)(F)F)c2)cc1[C@H]1[C@@H]2C[C@H](NCC(F)F)C[C@@H]21 [compound 282, 5-(5-((1R,3r,5S,6r)-3-((2,2-difluoroethyl)amino)bicyclo[3.1.0]hexan-6-yl)-1-isopropyl-1H-pyrazol-3-yl)-3-(trifluoromethoxy) pyridin-2-amine]"
17,209,"Nc1ncc(-c2cc([C@@H]3[C@@H]4C[C@H](N5CCOCC5)C[C@@H]43)n(CC3CC3)n2)cc1OC(F)(F)F [compound 283, 5-(1-(cyclopropylmethyl)-5-((1R,3r,5S,6s)-3-morpholinobicyclo [3.1.0]hexan-6-yl)-1H-pyrazol-3-yl)-3-(tritluoromethoxy) pyridin-2-amine]"
18,5.7,"COCCN(C)[C@H]1C[C@@H]2[C@H](C1)[C@H]2c1cc(-c2cnc(N)c(C(F)(F)F)c2)nn1C(C)C [compound 284, 5-(1-isopropyl-5-((1R,3r,5S,6r)-3-((2-methoxyethyl)(methyl)amino)bicyclo[3.l.0]hexan-6-yl)-1H-pyrazol-3-yl)-3-(trifluoromethyl) pyridin-2-amine]"
19,4.3,"CC(C)n1nc(-c2cnc(N)c(OC(F)F)c2)cc1[C@H]1[C@@H]2C[C@H](N3CC[C@H](F)C3)C[C@@H]21 [compound 285, 3-(difluoromethoxy)-5-(5-((1R,3r,5S,6S)-3-((S)-3-fluoropyrrolidin-1-yl)bicyclo[3.1.0]hexan-6-yl)-1-isopropyl-1H-pyrazol-3-yl) pyridin-2-amine]"
20,3.4,"CO[C@H]1CCCN([C@H]2C[C@@H]3[C@H](C2)[C@H]3c2cc(-c3cnc(N)c(C(F)(F)F)c3)nn2C(C)C)C1 [compound 286, 5-(1-isopropyl-5-((1R,3r,5S,6S)-3-((S)-3-methoxypiperidin-1-yl)bicyclo[3.1.0]hexan-6-yl)-1H-pyrazol-3-yl)-3-(trifluoromethyl) pyridin-2-amine]"
21,6.3,"CC(C)n1nc(-c2cnc(N)c(C(F)(F)F)c2)cc1[C@H]1[C@@H]2C[C@H](OC3COC3)C[C@@H]21 [compound 287, 5-(1-isopropyl-5-((1R,3r,5S,6r)-3-(oxetan-3-yloxy)bicyclo[3.1.0]hexan-6-yl)-1H-pyrazol-3-yl)-3-(trifluoromethyl)pyridin-2-amine]"
22,6.3,"CC(C)n1nc(-c2cnc(N)c(OC(F)(F)F)c2)cc1[C@H]1[C@@H]2C[C@@H](NCC(F)F)C[C@@H]21 [compound 288, 5-(5-((1R,3s,5S,6r)-3-((2,2-udifloroethyl)amino)bicyclo[3.1.0]hexan-6-yl)-1-isopropyl-1H-pyrazol-3-yl)-3-(tritluoromethoxy) pyridin-2-amine]"
23,4.4,"CC(C)n1nc(-c2cnc(N)c(OC(F)F)c2)cc1[C@H]1[C@@H]2C[C@@H](N3CC[C@H](F)C3)C[C@@H]21 [compound 289, 3-(difluoromethoxy)-5-(5-((1R,3s,5S,6S)-3-((S)-3-fluoropyrrolidin-1-yl)bicyclo[3.1.0]hexan-6-yl)-1-isopropyl-1H-pyrazol-3-yl) pyridin-2-amine]"
24,7.7,"CO[C@H]1CCCN([C@@H]2C[C@@H]3[C@H](C2)[C@H]3c2cc(-c3cnc(N)c(C(F)(F)F)c3)nn2C(C)C)C1 [compound 290, 5-(1-isopropyl-5-((1R,3s,5S,6S)-3-((S)-3-methoxypiperidin-1-yl)bicyclo[3.1.0]hexan-6-yl)-1H-pyrazol-3-yl)-3-(trifluoromethyl) pyridin-2-amine]"
